Assays:
[1] = Acute toxicity, single intraperitoneal injection, probit analysis (LD50); assay type: in vivo, Mäusen; settings: mice, i.p.
Source text: Ihre akute Toxizität wurde an Mäusen (einmalige intraperitoneale Injektion) nach der Methode der Probit-Analyse nach Zichtfield, Wilcoxon, t949 untersucht. In Tabelle 2 sind die Parameter der akuten Toxizität (LDso) angegeben, die eine mäßige Toxizität der erfindungsgemäßen Verbindungen belegen.

[2] = Side effects and CNS/behaviour: tremor (TD50), sedative and m-cholinomimetic effects; assay type: in vivo; settings: for Verhältnis TD50 zu ED50: ED50 = dose blocking the effect of Skopolamin in 50 % of the animals (passive avoidance, mice); for TD50 (Tremor): toxic dose causing tremor in 50 % of the animals
Source text: Von Interesse ist der Einfluß der erfindungsgemäßen Verbindungen auf das ZNS und das Verhalten der Tiere.

[3] = test system: durch Skopolamin hervorgerufene Amnesie; assay: Dark avoidance assay (passive avoidance), scopolamine-induced amnesia; assay type: in vivo, Mäusen; settings: mice, compound s.c. 5 min before learning, Skopolamin i.p. 30 min before
Protocol: Die Mäuse wurden dabei in den hellen Abschnitt der Kammer gegeben, wonach die Latenzzeit für den Übertritt in die dunkle Kammer, in der die Tiere einem Stromschlag von 0,5 mA ausgesetzt waren, registriert wurde. Danach erhöhte sich die Latenzzeit für den Übertritt in den dunklen Abschnitt und verringerte sich die Aufenthaltsdauer. 30 Minuten vor dem Versuch wurden den Mäusen i.p. […] Gedächtnisstörungen hervorrufendes Skopolamin als Cholinblocker injiziert. Die erfindungsgemäßen Verbindungen wurden s.c. 5 Minuten vor dem Lernvorgang injiziert. Das Skopolamin verkürzt die Latenzzeit für den Übertritt in die dunkle Kammer, die erfindungsgemäßen Verbindungen stellen jedoch die Latenzzeitwerte wie bei der Kontrollgruppe wieder her oder bedingen ein geringfügiges Überschreiten dieser Werte (siehe Tabelle 2). Gleichzeitig wird die Aufenthaltsdauer der Tiere im dunklen Abschnitt der Kammer auf 36 bis 45 Hundertstel des Ausgangswerts verringert.

[4] = test system: Nerven-Muskel-Präparat von Mäusen (n.peroneus-m.extensor digitorum longus); assay: Neuromuscular transmission in isolated nerve-muscle preparation (EPP, minEPP); settings: for Stimulierung der Nerven-Muskelübertragung, in % der Amplitude: EPP: EPP = Endplattenpotential
Source text: Der Einfluß der Stoffe auf die Nerven-Muskei-Übertragung wurde am isolierten Nerven-Muskel-Präparat von Mäusen (n.peroneus-m.extensor digitorum longus) (s. Bhattacharyya B. et al. "Neuromuscular blocking action of two hemicholinium-3 analogs" Europ. J. Pharmac. 146, 155-165 /1988/) untersucht, das von Lilly-Lösung perfundiert wurde, durch die man ein Gemisch von 02 und C02 leitete. […] Das Endplattenpotential (EPP) und das Endplattenminiaturpotential (minEPP) wurden mit Hilfe eines Magnetografen aufgezeichnet und danach mit dem Computer ausgewertet. Ermittelt wurden die Frequenz (f), die Amplitude (A) und die Dauer (t) der minEPP und der EPP (s. Tabelle 2).

[5] = test system: isolierten Präparaten des rechten Vorhofs von Kaninchen; assay: Antiarrhythmic effect on isolated right atrium preparations (microelectrodes: AP duration, refractory period R, e/R); settings: isolated right atrium of rabbit, microelectrodes
Source text: (§1) Die antiarrhythmische Wirkung der erfindungsgemäßen Verbindungen wurde in zwei Versuchsserien untersucht, und zwar an isolierten Präparaten des rechten Vorhofs von Kaninchen und mit Hilfe des Calciumchlorid-Arrhythmie-Modells an Ratten. In den Versuchen an den isolierten Präparaten des rechten Vorhofs wurden mit Hilfe von Mikroelektroden die Dauer des AP sowie der Refraktärzeit (R) und die maximale Hemmung (e) und der Parameter (e/R) untersucht, durch den die Anfälligkeit des Myokards gegenüber der Entstehung von Arrhythmien gekennzeichnet wird. In den Versuchen an Ratten wurden diesen Calciumchlorid in einer Dosierung von 250 mg/kg injiziert. Registriert wurden das Vorliegen von Kammerflimmern und die Lebensdauer der Tiere. Sämtliche erfindungsgemäßen Verbindungen üben eine mäßige antiarrhythmische Wirkung aus. Sie steigern die Refraktärzeit des Muskels und des AP um 35 bis 145 % und verringern gleichzeitig die Anfälligkeit des Myokards, ausgedrückt durch den Parameter e/R um 10 bis 80 % (s. Tabelle 4). In bezug auf diese Wirkung waren die Salze der bicyclischen Basen wirksamer als Amyridin. Bezüglich des Vermögens, die Tiere vor Kammerflimmern und vor dem Tod nach Verabreichung von 250 mg/kg Calciumchlorid zu schützen, waren diese Verbindungen ebenfalls am stärksten wirksam. Bei Verwendung des Calciumchlorid-Arrhythmie-Modells waren viele erfindungsgemäßen Verbindungen stärker wirksam als das klassische Antiarrhythmikum Chinidin (s. M.D. Ma s kovskij, Lekarstvennye sredstva, Bd. 1, S. 401, Moskau, Medicina, 1984).

[6] = test system: Calciumchlorid-Arrhythmie-Modells; assay: Calcium chloride arrhythmia model (250 mg/kg): ventricular fibrillation, survival; assay type: in vivo, Ratten; settings: rats, calcium chloride 250 mg/kg
Source text: as §1

Zahl der Krämpfe = assay: Writhing test (intraperitoneal acetic acid); assay type: in vivo, Mäusen; settings: male mice
Source text: Die analgetische Wirkung der erfindungsgemäßen Verbindungen wurde an männlichen Mäusen anhand des "Krampf"-Tests (Writhing-Tests) unter intraperitonealer Injizierung von Essigsäure und des Hot-plate-Tests untersucht. Im ersten Falle wurde die analgetische Wirkung der Verbindungen anhand der prozentualen Verringerung der Zahl der Krämpfe ermittelt. Beim zweiten Test wurde die Schwelle der Schmerzempfindlichkeit (Ablecken der Pfoten) bestimmt. Die stärkste analgetische Wirkung der erfindungsgemäßen Verbindungen zeigte sich beim "Krampf"-Test. Dabei übertrafen die Salze der bicyclischen Basen Amyridin, aber nicht alle erfindungsgemäßen Verbindungen waren schwächer als Morphin (s. Tabelle 4).

Orientierungsaktivität = assay: Influence on orientation activity; assay type: in vivo, Mäusen; settings: mice
Source text: Von Interesse ist der Einfluß der erfindungsgemäßen Verbindungen auf das ZNS und das Verhalten der Tiere. Alle Verbindungen zeigen eine Kombination von stimulierenden und sedativen Eigenschaften und bei höheren Dosen auch eine m-cholinomimetische Wirkung, wobei Tremor, Speichelfluß und Diarrhoe ausgelöst werden.

Wirkung von Hexenal = assay: Influence on the effect of Hexenal; assay type: in vivo, Mäusen; settings: mice
[7] = target: T1, Acetylcholinesterase menschlicher Erythrozyten (Homo sapiens, UniProt P22303); assay: Acetylcholinesterase inhibition, spectrophotometric; assay type: biochemical; settings: Acetylcholinesteraseinhibierung bei menschlichen Erythrozyten IK, (Mol), human erythrocyte enzyme
T1 construct: Acetylcholin-esteraseinhi-bierung bei menschlichen Erythrozyten; from tissue; host or cells: human erythrocytes
Source text: Untersucht wurden die Wirkmechanismen der erfindungsgemäßen Verbindungen: • 1. Die Wirkung auf Acetylcholinesterase menschlicher Erythrozyten auf spektrofotometrischem Wege. • 2.

[8] = test system: K -Durchlässigkeit der Membrane des Ranvier-Schnürringes; assay: K+ permeability of the node of Ranvier membrane, voltage clamp; parameters: species or system Frosches; settings: node of Ranvier, frog sciatic nerve fibres, voltage clamp; concentration giving 50 % block of ion permeability; read-out: Blockierung der K^+-Durchlässigkeit der Membrane Ic50 (Mol)
Source text: (§2) Untersucht wurden die Wirkmechanismen der erfindungsgemäßen Verbindungen: • 1. Die Wirkung auf Acetylcholinesterase menschlicher Erythrozyten auf spektrofotometrischem Wege. • 2. Die Wirkung auf die K - und Na -Durchlässigkeit der Membrane des Ranvier-Schnürringes (s. Fox T.M. et al. "Modification of ionic membrane currrents of Ranvier nodes by UV-radiation under voltage clamp conditions", Experientia, 27, 1289-1290 /1971/ und Arhom P. et al. "Local anesthetics: effects on permeability properties of nodal membrane in myelynated nerve fibres from xenopus". Acta physiol. Scand. 91, 11-21 /1974/) der Nervenfasern des Hüftnervs des Frosches unter Anwendung der Methode der Messung der Membranspannung (Voltage-clampmethode) (s. Derksen H.E. "Axon membrane voltage fluctuations", Acta Physiol., Pharmacol Neer, 13, 373-466 /1965/).
(§3) Alle erfindungsgemäßen Verbindungen sind Blocker für die K^+-Durchlässigkeit der Membrane analog dem Amyridin. Die Salze der bicyclischen Basen blockieren jedoch stärker die Na -Durchlässigkeit der Membrane, was sich mit ihren sedativen und analgetischen Eigenschaften in Verbindung bringen läßt.

[9] = test system: Na -Durchlässigkeit der Membrane des Ranvier-Schnürringes; assay: Na+ permeability of the node of Ranvier membrane, voltage clamp; parameters: species or system Frosches; settings: node of Ranvier, frog sciatic nerve fibres, voltage clamp; concentration giving 50 % block of ion permeability; read-out: Blockierung der Na^+-Durchlässigkeit der Membrane Ic50 (Mol)
Source text: as §2, §3

T1 sequence (P22303 other isoform, or with tags, fused parts or gaps): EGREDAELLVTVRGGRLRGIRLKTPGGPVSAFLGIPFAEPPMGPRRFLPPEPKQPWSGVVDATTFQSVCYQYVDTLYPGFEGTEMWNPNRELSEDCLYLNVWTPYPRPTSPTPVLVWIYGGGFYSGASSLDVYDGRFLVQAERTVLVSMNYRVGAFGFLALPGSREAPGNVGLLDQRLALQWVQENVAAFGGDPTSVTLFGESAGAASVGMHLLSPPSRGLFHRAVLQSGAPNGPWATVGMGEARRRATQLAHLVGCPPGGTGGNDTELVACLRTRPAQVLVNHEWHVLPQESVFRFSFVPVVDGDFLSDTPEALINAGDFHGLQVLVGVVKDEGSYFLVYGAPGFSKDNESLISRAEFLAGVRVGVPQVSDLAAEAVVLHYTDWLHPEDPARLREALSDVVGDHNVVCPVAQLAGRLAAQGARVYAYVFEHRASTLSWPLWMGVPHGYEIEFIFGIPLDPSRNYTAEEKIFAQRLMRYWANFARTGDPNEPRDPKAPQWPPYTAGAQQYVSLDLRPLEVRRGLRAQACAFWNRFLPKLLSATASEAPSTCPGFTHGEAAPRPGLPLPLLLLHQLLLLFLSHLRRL

Row | SMILES | LD50 [1] | Verhältnis TD50 zu ED50 [2] | TD50 (Tremor) [2] | Einfluß auf das Gedächtnis: Zahl der Tiere in %, bei denen die Skopolaminwirkung aufgehoben wurde [3] | Stimulierung der Nerven-Muskelübertragung, in % der Amplitude: EPP [4] | Stimulierung der Nerven-Muskelübertragung, in % der Amplitude: minEPP [4] | Antiarrhythmische Wirkung: Verlängerung d. Refraktärzeit (R), in % [5] | Antiarrhythmische Wirkung: Verlängerung d. Lebensdauer von Ratten an Hand des CaCl2-Arrhythmie-Modells, in % [6] | Analgetische Wirkung: Abnahme d. Zahl der "Krämpfe" bei Mäusen, in % (Zahl der Krämpfe) | Änderung der Orientierungsaktivität, in % (Orientierungsaktivität) | Änderung der Dauer der Seitenlage, in %: Hexenal 60 mg/kg (Wirkung von Hexenal) | Ki [7] | IC50 [8] | IC50 [9]
1 | Cc1nc2c(c(N)c1C)CCC2 [Verbindung 14] | 17 mg/kg | 8,2 | 9 mg/kg | 70% | 30% | 62% | 100% | 90% | 50% | -7% | +15% | 0.35 µM |  | 
2 | CCc1nc2c(c(N)c1C)CCC2 [Verbindung 29] | 35 mg/kg | 12 | 22 mg/kg | 70% | 18% | 40% |  |  |  |  |  | 6 µM | 200 µM | 300 µM
3 | Cc1nc2c(c(N)c1C)CCC2 [Verbindung 9] | 15 mg/kg | 7 | 7 mg/kg | 70% | 40% | 80% | 110% | 140% | 70% | -20% | +30% | 0.251 µM |  | 
4 | Cc1nc2c(c(N)c1C)CCC2 [Verbindung 4] | 15 mg/kg | 11 | 5,5 mg/kg | 70% | 40% | 85% | 90% | 180% | 80% | 0% | 0% | 0.24 µM |  | 

From EP0326134A1, “4-Amino-2,3-disubstituted-6,7-dihydro-5H-1-pyridine derivatives, process for their preparation and medicaments containing them” (NAUCHNO-ISSLEDOVATELSKY INSTITUT TEKHNOLOGII I BEZOPASNOSTI …, priority 1988, dated 1989)
